Data published in article PMC12635268, “Novel antimicrobial peptides and peptide-microbiome crosstalk in Appalachian salamander skin” (NPJ Biofilms and Microbiomes, 2025).
Like-named read-outs stand apart in the source and are kept apart here. Peptide text beside a SMILES is read from it.

Legend:
A. baumannii ATCC 17978 = assay: microbe, parasite or virus in culture
Method: (§1) Antimicrobial susceptibility testing of the 20 synthesized peptides against 17 bacterial strains of clinical relevance in the ESKAPEE panel was conducted using minimum inhibitory concentration (MIC) assays following the broth microdilution method outlined by Parker et al.[91]. The ESKAPEE panel is comprised of fourteen American Type Culture Collection (ATCC) strains and three Multidrug Resistant Organism Repository and Surveillance Network (MRSN) bacterial strains. These strains represent at least one drug-susceptible strain and one drug-resistant strain for each bacterium to assess drug efficacy across various resistance mechanisms. This panel is comprised of the following bacterial species and strains: E. faecium (ATCC 19434, ATCC 49224), S. aureus (ATCC 25923, ATCC 43300), K. pneumoniae (ATCC 700603, ATCC 13883, MRSN 1320), A. baumannii (ATCC 17978, ATCC 19606, MRSN 959), P. aeruginosa (ATCC 15692, ATCC 27853, MRSN 5519), E. cloacae (ATCC 13047, ATCC 35549), and E. coli (ATCC 35218, ATCC 43888). Bacteria were grown in cation-adjusted Mueller-Hinton broth (CAMHB) to achieve a final inoculum of 1 × 10⁵ CFU/mL. CAMHB is selected for its batch-to-batch reproducibility, low levels of antimicrobial inhibitors, and ability to support the growth of most bacterial pathogens.
(§2) Briefly, lyophilized peptides were dissolved in 0.2% TFA + 0.4% BSA in water to 2.56 mg/mL, ultrasonicated for 20 min, diluted 10-fold into CAMHB, and then serially diluted 2-fold in 0.02% TFA + 0.04% BSA in CAMHB and assayed at a concentration of 0.25 to 128 μg/mL. Assays were set up using the Tecan Freedom EVO liquid handling robot and software (Tecan, Switzerland) with 50 μL of bacterial inoculum and 50 μL of peptide transferred into round-bottom 96-well microtiter plates. Each plate assay was performed in duplicate and incubated at 37 °C for 20 h without agitation. Bacterial growth was assessed using the BIOMIC V3 Image Analysis system (Giles Scientific, USA) and the MIC values were determined visually according to the Clinical and Laboratory Standards Institute (CLSI) guidelines.

A. baumannii ATCC 19606 = assay: microbe, parasite or virus in culture
Method: as §1, §2

E. cloacae ATCC 13047 = assay: microbe, parasite or virus in culture
Method: as §1, §2

E. cloacae ATCC 35549 = assay: microbe, parasite or virus in culture
Method: as §1, §2

E. coli ATCC 35218 = assay: microbe, parasite or virus in culture; details: E. coli 35218; Week 1 (12/6/2023)
Method: as §1, §2

E. coli ATCC 43888 = assay: microbe, parasite or virus in culture
Method: as §1, §2

E. faecium ATCC 19434 = assay: microbe, parasite or virus in culture
Method: as §1, §2

E. faecium ATCC 49224 = assay: microbe, parasite or virus in culture
Method: as §1, §2

K. pneumoniae ATCC 13883 = assay: microbe, parasite or virus in culture
Method: as §1, §2

[1] = test system: K. pneumoniae ATCC 700603; assay: microbe, parasite or virus in culture; details: K. pneumoniae 700603; Week 1 (12/6/2023)
Method: as §1, §2

P. aeruginosa ATCC 27853 = assay: microbe, parasite or virus in culture
Method: as §1, §2

P. aeruginosa MRSN 5519 = assay: microbe, parasite or virus in culture
Method: as §1, §2

S. aureus ATCC 25923 = assay: microbe, parasite or virus in culture
Method: as §1, §2

S. aureus ATCC 43300 = assay: microbe, parasite or virus in culture; details: S. aureus 43300; Week 1 (12/6/2023)
Method: as §1, §2

P. aeruginosa PA01 (Si) = assay: microbe, parasite or virus in culture; format: cell-based
From the text: Supplement 41522_2025_837_MOESM13_ESM.xlsx, sheet "Table_S13_ESKAPEE-MIC" | column: Bacterial MIC (µg/mL)

A. baumannii 5075 = details: Week 1 (12/6/2023)
[2] = design: method as in Biomatik (vendor); details: 1.0 mg peptide in 1.0 ml solvent; peptides synthesized by Biomatik; ref Biomatik (vendor); cited from earlier work

| SMILES | Bacterial MIC (A. baumannii ATCC 17978; ATCC 17978, 20 h) | Bacterial MIC (A. baumannii ATCC 19606; ATCC 19606, 20 h) | Bacterial MIC (E. cloacae ATCC 13047; ATCC 13047, 20 h) | Bacterial MIC (E. cloacae ATCC 35549; ATCC 35549, 20 h) | Bacterial MIC (E. coli ATCC 35218) | Bacterial MIC (E. coli ATCC 43888; ATCC 43888, 20 h) | Bacterial MIC (E. faecium ATCC 19434; ATCC 19434, 20 h) | Bacterial MIC (E. faecium ATCC 49224; ATCC 49224, 20 h) | Bacterial MIC (K. pneumoniae ATCC 13883; ATCC 13883, 20 h) | Bacterial MIC [1] | Bacterial MIC (P. aeruginosa ATCC 27853; ATCC 27853, 20 h) | Bacterial MIC (P. aeruginosa MRSN 5519; MRSN 5519, 20 h) | Bacterial MIC (S. aureus ATCC 25923; ATCC 25923, 20 h) | Bacterial MIC (S. aureus ATCC 43300) | Bacterial MIC (P. aeruginosa PA01 (Si); Si) | Bacterial MIC (K. pneumoniae 4640; 4640, 20 h) | Bacterial MIC (A. baumannii 5075) | Suggest solvent (solubility) [2] | further results |
| --- | --- | --- | --- | --- | --- | --- | --- | --- | --- | --- | --- | --- | --- | --- | --- | --- | --- | --- | --- |
| CC[C@H](C)[C@H](NC(=O)[C@H](CO)NC(=O)[C@H](CO)NC(=O)[C@H](Cc1ccccc1)NC(=O)[C@H](CS)NC(=O)CNC(=O)[C@@H]1CCCN1C(=O)[C@H](CCCNC(=N)N)NC(=O)[C@H](CCCNC(=N)N)NC(=O)CNC(=O)[C@H](CS)NC(=O)[C@H](CCCNC(=N)N)NC(=O)[C@H](CCCNC(=N)N)NC(=O)[C@@H]1CCCN1C(=O)[C@H](C)NC(=O)CNC(=O)[C@H](CCCNC(=N)N)NC(=O)[C@@H](NC(=O)[C@H](CC(C)C)NC(=O)[C@H](CCCNC(=N)N)NC(=O)[C@@H](NC(=O)CNC(=O)[C@H](CCCNC(=N)N)NC(=O)[C@H](CCCCN)NC(=O)[C@@H](NC(=O)[C@H](Cc1c[nH]cn1)NC(=O)[C@@H](NC(=O)[C@@H](N)CCC(=O)O)[C@@H](C)CC)[C@@H](C)O)[C@@H](C)O)C(C)C)C(=O)NCC(=O)N[C@@H](CCCCN)C(=O)N[C@H](C(=O)N[C@@H](CCC(=O)O)C(=O)O)C(C)C [TrPr-Eb2] (H-EIHTKRGTRLVRGAPRRCGRRPGCFSSIGKVE-OH; N-terminus and C-terminus assumed) | >128.000 µg/mL | >128.000 µg/mL | >128.000 µg/mL | >128.000 µg/mL | >128.000 µg/mL | >128.000 µg/mL | >128.000 µg/mL | >128.000 µg/mL | >128.000 µg/mL | >128.000 µg/mL | >128.000 µg/mL | >128.000 µg/mL | >128.000 µg/mL | >128.000 µg/mL | >128.000 µg/mL | >128.000 µg/mL | >128.000 µg/mL | 1.0mg peptide soluble in 1.0ml H2O | – |
| N=C(N)NCCC[C@H](N)C(=O)N1CCC[C@H]1C(=O)N1CCC[C@H]1C(=O)NCC(=O)N[C@@H](Cc1ccccc1)C(=O)N[C@@H](CO)C(=O)N1CCC[C@H]1C(=O)N[C@@H](Cc1ccccc1)C(=O)O [PrMb-Eb14] | – | – | – | – | >128.000 µg/mL | – | – | – | – | >128.000 µg/mL | – | – | – | >128.000 µg/mL | – | – | >128.000 µg/mL | 1.0mg peptide soluble in 1.0ml H2O | Bacterial MIC (A. baumannii ATCC 17978; A. baumannii 17978, Week 1 (12/6/2023)): >128.000 µg/mL; Bacterial MIC (A. baumannii ATCC 19606; A. baumannii 19606, Week 1 (12/6/2023)): >128.000 µg/mL; Bacterial MIC (E. cloacae ATCC 13047; E. cloacae 13047, Week 1 (12/6/2023)): >128.000 µg/mL; Bacterial MIC (E. cloacae ATCC 35549; E. cloacae 35549, Week 1 (12/6/2023)): >128.000 µg/mL; Bacterial MIC (E. coli ATCC 43888; E. coli 43888, Week 1 (12/6/2023)): >128.000 µg/mL; Bacterial MIC (E. faecium ATCC 19434; E. faecium 19434, Week 1 (12/6/2023)): >128.000 µg/mL; Bacterial MIC (E. faecium ATCC 49224; E. faecium 49224, Week 1 (12/6/2023)): >128.000 µg/mL; Bacterial MIC (K. pneumoniae ATCC 13883; K. pneumoniae 13883, Week 1 (12/6/2023)): >128.000 µg/mL; Bacterial MIC (P. aeruginosa ATCC 27853; P. aeruginosa 27853, Week 1 (12/6/2023)): >128.000 µg/mL; Bacterial MIC (P. aeruginosa MRSN 5519; P. aeruginosa 5519, Week 1 (12/6/2023)): >128.000 µg/mL; Bacterial MIC (S. aureus ATCC 25923; S. aureus 25923, Week 1 (12/6/2023)): >128.000 µg/mL; Bacterial MIC (P. aeruginosa PA01 (Si); P. aeruginosa PA01 (Si), not typical ESKAPEE strain, Week 1 (12/6/2023)): >128.000 µg/mL; Bacterial MIC (K. pneumoniae 4640; K. pneumoniae 4640, Week 1 (12/6/2023)): >128.000 µg/mL |
| CC[C@H](C)[C@H](N)C(=O)N[C@@H](CC(C)C)C(=O)N[C@@H](CCCNC(=N)N)C(=O)N[C@@H](CCCCN)C(=O)N1CCC[C@H]1C(=O)N[C@@H](CCC(=O)O)C(=O)N[C@@H](CCCCN)C(=O)N[C@@H](CC(=O)O)C(=O)N[C@@H](CC(=O)O)C(=O)N[C@@H](CC(=O)O)C(=O)N[C@H](C(=O)N[C@@H](CO)C(=O)N[C@@H](CO)C(=O)N[C@@H](CCCNC(=N)N)C(=O)N[C@H](C(=O)NCC(=O)N[C@@H](Cc1ccc(O)cc1)C(=O)N[C@@H](CC(C)C)C(=O)N[C@@H](Cc1ccccc1)C(=O)N[C@@H](CS)C(=O)N[C@@H](CS)C(=O)N[C@@H](CCCCN)C(=O)N[C@@H](CCSC)C(=O)N[C@@H](CCCNC(=N)N)C(=O)N[C@@H](CC(C)C)C(=O)N[C@@H](CS)C(=O)N[C@@H](C)C(=O)N[C@@H](CS)C(=O)N[C@@H](CCCNC(=N)N)C(=O)N[C@@H](CCCNC(=N)N)C(=O)N[C@@H](CO)C(=O)O)[C@@H](C)CC)[C@@H](C)O [Tr-Eb4] (H-ILRKPEKDDDTSSRIGYLFCCKMRLCACRRS-OH; N-terminus and C-terminus assumed) | >128.000 µg/mL | >128.000 µg/mL | >128.000 µg/mL | >128.000 µg/mL | – | >128.000 µg/mL | >128.000 µg/mL | >128.000 µg/mL | >128.000 µg/mL | – | >128.000 µg/mL | >128.000 µg/mL | >128.000 µg/mL | – | >128.000 µg/mL | >128.000 µg/mL | – | 1.0mg peptide soluble in 1.0ml DMSO | – |
| CC[C@H](C)[C@H](NC(=O)[C@H](CCSC)NC(=O)[C@H](CS)NC(=O)[C@H](CC(C)C)NC(=O)[C@@H](NC(=O)[C@H](CS)NC(=O)[C@H](CS)NC(=O)[C@H](CCSC)NC(=O)[C@H](CS)NC(=O)[C@H](CO)NC(=O)[C@H](CC(C)C)NC(=O)[C@H](CCC(N)=O)NC(=O)[C@H](CCCCN)NC(=O)[C@H](Cc1c[nH]cn1)NC(=O)[C@H](CCC(N)=O)NC(=O)[C@H](Cc1c[nH]c2ccccc12)NC(=O)[C@@H](NC(=O)[C@@H](NC(=O)[C@H](CCC(=O)O)NC(=O)[C@@H](NC(=O)[C@H](CC(=O)O)NC(=O)[C@@H](NC(=O)[C@H](CC(C)C)NC(=O)[C@H](CC(=O)O)NC(=O)[C@@H](N)CCCCN)[C@@H](C)CC)[C@@H](C)O)[C@@H](C)O)[C@@H](C)O)C(C)C)C(=O)N[C@@H](C)C(=O)N[C@@H](CCCCN)C(=O)N[C@@H](CCCNC(=N)N)C(=O)N[C@@H](CS)C(=O)N[C@@H](CS)C(=O)O [Tr-Pc15] (H-KDLIDTETTWQHKQLSCMCCVLCMIAKRCC-OH; N-terminus and C-terminus assumed) | >128.000 µg/mL | >128.000 µg/mL | >128.000 µg/mL | >128.000 µg/mL | – | >128.000 µg/mL | >128.000 µg/mL | >128.000 µg/mL | >128.000 µg/mL | – | >128.000 µg/mL | >128.000 µg/mL | >128.000 µg/mL | – | >128.000 µg/mL | >128.000 µg/mL | – | 1.0mg peptide soluble in 1.0ml DMSO | – |
